This is an account of results in patent US10842767B2, “Use of ketone esters for prevention of CNS oxygen toxicity” (University of South Florida, priority 2011, dated 2020).

“And” between values parts separate entries of the source, which are not always exact repeats. Equal entries are not always repeated. “Also recorded” adds a separate entry of the source. Where two headings read alike, the source gives them in different places. A value given as a limit tells only on which side of the number the result lay.

Series [1] has as its system primary cultures of rat cortical neurons. Put plainly: Superoxide anion production (DHE fluorescence) in primary cortex neurons exposed to HBO2 or amyloid beta. It counts as cell-based. The conditions noted are these: 60 min 5 ATA O2, NBO and HBO. The protocol:
Primary dissociated neuronal cultures of the hippocampus and cortex are acquired from Brain Bits LLC, to increase time efficiency and to minimize cost associated with purchasing rats. Hippocampal or cortical tissue from Brain Bits (shipped in Hibernate®) are enzymatically and mechanically dissociated via pipette trituration. Neurons are plated on 12 mm glass coverslips and allowed to adhere for 1-2 hrs in an incubator maintained at 9-20% O2 in a humidified atmosphere. Cultures are maintained in media purchased from Brain Bits, including NbActiv1® and NbActive4. […] Fluorescent probes (for use with fluorescence and confocal microscopy)
List of fluorescence probes that will be purchased from Invitrogen: • Dihydroethidium, DHE (1-10 μM; Exλ 525, Emλ 590) detects intracellular ·O2^− generation (Bindokas et al. 1996; D'Agostino et al. 2007). • Calcein-AM (4 μM; Exλ 490, Emλ 535) detects cell volume and monitors cell viability (Crowe, 1995; Inglefield, 1998; Inglefield, 1999). • Ethidium Homodimer-1, EH-1 (6 μM; Exλ 525, Emλ 590) enters cells upon membrane damage and thus labels dead or dying cells (Bickler and Hansen 1998; Pinheiro et al. 2006). Fluorescence and Confocal Microscopy […]
Presence of intracellular ROS is measured by detection of superoxide anion using Dihydroethidium (DHE). […] Cells are washed in PBS and then visualized using fluorescent microscopy or quantified using spectrophotometry.

Series [2] is described as follows: Blood ketones (BHB, AcAc, acetone) and glucose after oral gavage. It counts as in vivo, rat. The conditions noted are these: for blood BHB level versus control (words) / effect on blood glucose / blood AcAc / acetone level: ~10 g/kg gavage; for effect on blood glucose: over 4 hrs, relative to control (water); for blood AcAc / acetone level: acetone at 60 min; for duration of elevation of blood ketones: single oral/intragastric administration. As to the method:
To determine the time course of ketosis, 18 adult male Sprague-Dawley rats (250-350 grams), pathogen-free, were purchased from a vendor (Harlan) and shipped 7 days after being implanted with carotid catheters. The rats were food (not water) deprived for 18 hours prior to the start of the experiment. […] Whole blood samples (10 μl) were acquired for analysis of glucose and BHB at USF utilizing a commercially available glucose/ketone monitoring system (Nova Max® Plus) at time 0, 30, 60, 120, 180 and 240 min. In addition, heparinized blood samples (200 μl) were collected into Eppendorf tubes at time 0, 30, 60, 120, 180 and 240 min. Samples were processed for the detection and quantification of BHB, AcAc, and acetone at Case Western Reserve University, Mouse Metabolic Phenotyping Center (MMPC). Briefly, samples were chilled on ice for 30 s, centrifuged in a micro-centrifuge (13,000 G) for 3-5 min and plasma (>100 μl), treated with reducing reagent of cold 0.2M sodium borodeuteride (NaBD4; Sigma, 205591, CAS 15681-89-7) dissolved in 0.1M NaOH (8.4 mg NaBD4 in 1 ml of 0.1M NaOH) and then immediately frozen on dry ice before storing at −80° C. Acetone was analyzed at the 60 minute time point, which was the predicted peak of blood AcAc levels (Desrochers et al. 1995). 300 μl of whole blood were collected in addition to the above collections, stabilized with cold 0.2M NaBD4, and then immediately frozen on dry ice. Samples were stored at −80° C. until analyzed for ketones. Internal standards of [^2H6]BHB or [^2H8]isopropanol were added to the treated plasma or blood samples (50 μl or 15 μl) and the BHB, AcAc (as M+1 of BHB) or acetone (as 2-propanol) metabolites were analyzed by gas chromatography-mass spectrometry (GC-MS) using an Agilent 5973 mass spectrometer, linked to a 6890 gas chromatograph equipped with an autosampler. Briefly, GC-MS conditions were either EI or CI mode (electron or chemical ionization mode); the samples were detected by selected ion monitoring as the BHB- and AcAc-trimethylsilyl derivatives (EI) or the derivative of acetone-pentafluorobenzoyl (CI). […]
Ketone measurements were taken at 30, 60, 120, 180 and 240 minutes. Blood plasma was treated with sodium borodeuteride (NaB2H4) to stabilize ketone concentration and then assayed by GC-MS. The rapid rise relating to blood ketones from BD-AcAc2 is due primarily from rapid desterfication in blood and tissues.

The conditions of series [3]: for blood pH after administration (FIG. 20): from 7.45.
Series [4] concerns rats exposed to 5 ATA O2 (CNS oxygen toxicity seizures). The experiment in a line: Latency to seizure (CNS-OT) in rats breathing hyperbaric oxygen at 5 ATA, radio-telemetry EEG. It counts as in vivo, rat. The conditions noted are these: for increase in latency to seizure (LS) compared to control (water): rats, 5 ATA O2, ~10 g/kg (3 ml) gavage 30 min before dive. An excerpt: All animal procedures were done in accordance with the University of South Florida Institutional Animal Care and Use Committee (IACUC) guidelines. Adult male Sprague-Dawley rats (n=60), 250-300 grams, were obtained from Harlan, anesthetized in 3-5% isoflurane (in O2) and implanted with a 4ET radio-transmitter (Data Sciences International, DSI) using sterile surgical technique. One pair of leads (positive and negative poles) was implanted in the costal diaphragm at the junction with the abdominal wall for diaphragmatic electromyogram (dEMG) signals, one pair of electrodes was inserted in the pectoral muscle to acquire electrocardiogram (ECG) data, and two pairs of wires were embedded in the skull between Bregma and Lambda, with one lead on either side of midline for each pair (EEG recordings). The EMG wires were not inserted into crural diaphragmatic muscle because of the high risk of pneumothorax due to the thinness of the muscle (419 to 630 μm). 4ET radio-transmitters also monitored core body temperature and physical activity. Rats were weighed immediately before surgery and subsequently once every 7 days, just prior to the weekly exposures to HBO2. After surgery, every animal recovered for ≥1 week.
The radiotelemetry system consisted of an implantable 4ET radio-transmitter able to amplify and broadcast signals via a receiver (DSI PhysioTel, model RPC-2) connected to an acquisition interface unit (ACQ 7700 Ponemah) via electrical penetrations in the wall of the hyperbaric chamber. The acquisition interface unit was connected to a computer for real time data collection and storage. The same acquisition unit also recorded chamber pressure and temperature, which were measured, respectively, […] directly connected to the acquisition system via BNC (Bayonet Neill-Concelman) cables. Each animal was continuously monitored via a video camera (AXIS 221 Network Camera) and the video of each experiment was recorded as well.
The hyperbaric system consisted of two main elements: 1) a plexiglass chamber (˜3 liter capacity, Diamond Box, Buxco, Electronics Inc., model PLY3114), that housed the rat during the experiment, and 2) a hyperbaric chamber (Reimers System Inc.—7.8 ATA MWP), that contained the plexiglass chamber and functioned as the pressure vessel. Both chambers were connected to an air compressor (oil-less rotary scroll compressor—model DK6086, Powerex).
During each experiment (hyperbaric hyperoxia), both the main chamber and the animal chamber were filled with air. Rats were placed into the plexiglass chamber and allowed ten minutes to acclimate, at which time the plexiglass chamber was flushed with 100% O2. The animal was then allowed 15 minutes to acclimate before both chambers were compressed to 5 ATA (58.8 PSIG) at a rate of 0.7 ATA/min. […] Each experiment was visually monitored via a live camera. LS was calculated from the moment at which the internal and the external chambers reached 5 ATA until the onset of convulsions, identified as high-amplitude, high frequency spikes lasting 10 to 30 sec, followed by polyspikes and wave formation concurrent with tonic-clonic motions of forelimbs and head. […]
The details of this example are explained in the Materials and Methods section above. Briefly, the effects of ketone esters (KEs) in preventing CNS-OT in rats were assessed before, during and after HBO2 exposure by measuring various parameters. […]

The conditions of series [5]: in vivo; cited from earlier work.

Consider `Cc1ccccc1NC(=N)Nc1ccccc1C` [DTG, 1,3,-di-o-tolylguanidine], for which, in series [1], the “effect on superoxide production under hyperoxia” value is listed as “prevented the hyperoxia-induced increase in superoxide production”.

Turning to `C[C@H](O)CCO` [BD, R,S-1,3-butanediol, reference compound], the “blood BHB level” value in series [2] (rats, 10 g/kg oral gavage) is listed as over 5 mM. The “blood BHB level versus control (words)” value in series [2] (rats) was “significant increase in BHB”; in series [2] (rats, listed as 1,3-butanediol) it was “elevated blood levels of β-hydroxybutyrate”. Also, the “effect on blood glucose” value in series [2] (rats) is on record as “no significant effect on blood glucose levels”. The “blood AcAc / acetone level” value in series [2] (rats) is listed as “only modest elevation in AcAc; also recorded: remained low or undetectable”. Besides, the “acidosis” value in series [3] (acute administration) is “mild nonpathological acidosis”. Further, the “mean decrease of blood pH compared to control (pH~7.5)” value in series [3] (after about 30 minutes) is 0.05; in series [3] (after about one hour), 0.1. Besides, in series [3], the “blood pH after administration (FIG. 20)” value is listed as 7.35.

On to `CC(=O)CC(=O)OCCC(C)O` (stereo not shown) [BD-AcAc, R,S-1,3-butanediol acetoacetate monoester], for which, in series [4] (HBO2 at 60 PSI (5 ATA O2), same rat without ketone ester about 8 minutes), the “latency to seizure, single rat EEG (FIG. 7)” value was 110 min. In addition, the “increase in latency to seizure (LS) compared to control (water)” value in series [4] came to 285%.

Compound `CC(=O)CC(=O)OCCC(C)OC(=O)CC(C)=O` (stereo not shown) [BD-AcAc2, R,S-1,3-butanediol acetoacetate diester] registered a total ketones in series [2] (about 30 minutes after gavage) of over 5 mM. Further, the “total blood ketones (BHB, AcAc and acetone)” value in series [2] (after 1 hr, average) is over 6 mM. Moreover, the “blood AcAc level” value in series [2] (rats, 10 g/kg oral gavage) is listed as over 3 mM. Also, the “blood BHB level” value in series [2] (rats, 10 g/kg oral gavage) is reported as over 3 mM. Further, in series [2] (rats), the “blood BHB level versus control (words)” value is “significant increase in BHB and AcAc at 30 minutes”. In addition, the “effect on blood glucose” value in series [2] (rats) is listed as “does not elevate blood glucose”; in series [2] (rats, listed as KE), “no significant effect on blood glucose levels”. The “blood AcAc / acetone level” value in series [2] (rats, listed as KE) is recorded as “significantly higher at 60 minutes; also recorded: increased significantly”. The “sustained elevation of total ketones” value in series [2] (single oral administration, for over 4 hrs) is reported as over 6 mM. The “duration of elevation of blood ketones” value in series [2] is “over 4 h”; in series [2] (listed as KE), 4 h and > 4 h. Besides, the blood acetone level in series [2] (within about 60 minutes after administration) is on record as about 0.7 mM. Besides, the “increase in latency to seizure (LS) compared to control (water)” value in series [4] is over 570%; in series [4] (listed as KE), 574±115% and 574±116%; in series [4] (listed as dKE) it was 570%. Also, the “mean decrease of blood pH compared to control (pH~7.5)” value was found to be 0.05 in series [3] (after about 30 minutes) and 0.1 in series [3] (after about one hour). For the same compound, in series [3] (during the 4 hour experiment), the “blood pO2” value is reported as over 120 mmHg. The “blood pH after administration (FIG. 20)” value in series [3] was determined as 7.35. In addition, in series [3] (significant and sustained), the “increase in blood pO2 levels” value was “approximately 30%”.

“(R)-1,3-butanediol ester [BHB ester, reference compound]”: the “blood BHB level versus control (words)” value in series [2] (rats) is listed as “elevated blood levels of β-hydroxybutyrate”.

Turning to MCT oil, in series [5], the “level of ketones produced by supplementation” value is under 500 µM.
